Experiment [1] concerns r(G4C2)8. The experiment can be described thus: In vitro Chem-CLIP and C-Chem-CLIP. The experiment is classed as binding. The protocol: In vitro Chemical Cross-linking and Isolation by Pull-Down (Chem-CLIP) and Competitive Chemical Cross-linking and Isolation by Pull-Down (C-Chem-CLIP): Approximately 10,000 counts of ^32P 5′-end labeled r(G4C2)8 was folded in 1×Folding Buffer at 95° C. for 1 min. After cooling to room temperature, the Chem-CLIP probe at the desired concentrations (5, 10, 100, 500, 1000, 5000, 10000 nM) was added, and the samples were incubated at 37° C. for 18 h. For C-Chem-CLIP studies, the parent compound (10, 100, 500, 1000, 5000, 10000 nM) was incubated with RNA for 1 h before addition of the Chem-CLIP probe (500 nM).
Cross-linked RNAs were clicked to biotin […] azide (10 μL of a 5 mM stock solution in DMSO) by incubating in a solution containing 25 mM HEPES (pH 7.1), 250 mM sodium ascorbate, 10 mM CuSO4, and 50 mM THPTA (tris-hydroxypropyltriazolylmethylamine) for 6 h at 37° C. A 300 μL of streptavidin-agarose beads (Sigma-Aldrich) was washed three times and then resuspended in 1×PBS. An aliquot (20 μL) of the slurry was added to each sample, which was incubated for 1 h at room temperature. The samples were centrifuged and the supernatant containing unbound RNA was transferred to an unused tube. The beads were then washed three times with 1×PBS supplemented with 0.10% (v/v) Tween-20 and centrifuged, with each wash supernatant being added to the tube containing unbound RNA. The amounts of radioactivity in the supernatant and associated with the beads were quantified with a Beckman Coulter LS6500 Liquid Scintillation Counter.

Experiment [2] deals with quadruplex form of r(G4C2) repeats, r(G2C2)10, d(G4C2)8, d(G2C2)10. The experiment can be described thus: In vitro Chem-CLIP, other nucleic acids. Type of experiment: binding.
For experiment [3], the system named is C9orf72 mRNA variants. Briefly: Cellular Chem-CLIP in patient-derived LCLs. The experiment is classed as cell-based, human. The following applies: lymphoblastoid cells. The protocol: (§1) Cellular Chem-CLIP. For cellular Chem-CLIP studies, LCLs were grown in T-25 flasks while iPSCs were grown in 100 mm dishes. The cells were treated with Chem-CLIP probe (500 nM) overnight at 37° C. After removing the medium and washing with 1×PBS, fresh, ice-cold 1×PBS was added, and crosslinking was performed by UV irradiation at 365 nm for 10 min. The cells were collected, and total RNA was extracted with Qiagen micro RNEasy Kit per the manufacturer's protocol. Dynabeads MyOne Streptavidin C1 beads (Thermo Fisher Scientific 65001) were pre-loaded with biotin disulfide azide (Bioconjugate Technologies LLC dba Click Chemistry Tools) by incubating (10 μL of a 5 mM stock solution in DMSO in 500 μL PBS) with beads at room temperature for 30 min before magnetic capture. The beads were washed with High Salt Wash Buffer: (10 mM Tris-HCl pH 7.0, 1 mM EDTA, 4 M NaCl, 0.2% Tween-20) followed by two washes with Nanopure water. The click reaction between cross-linked RNAs and the Dynabeads displaying biotin disulfide azide was completed in a solution containing 25 mM HEPES, pH 7.1, 250 mM sodium ascorbate, 10 mM CuSO4, and 50 mM THPTA for 6 h at 37° C. […] The levels of C9orf72 mRNA in the purified, pull-down fraction were then measured by RT-qPCR as described above.

Experiment [4] deals with C9orf72 mRNA variants. Briefly: Cellular Chem-CLIP in patient-derived iPSCs. The experiment is classed as cell-based, human. The protocol:
as §1

Experiment [5] deals with r(G4C2)8. The experiment can be described thus: Biolayer interferometry (BLI) binding. To be noted: for Kd: BLI. The protocol: (§2) Biolayer Interferometry (BLI). BLI studies were performed similarly as previously described (12) using an Octet RED96. Briefly, 5′-biotinylated nucleic acids were folded by heating at 95° C. for 4 min in 10 mM sodium phosphate buffer, pH 7, followed by slowly cooling to room temperature. Then, to the folded RNA were added the following components: 1.386 mL 1×DPBS (21-031-CV, Corning), 180 μL freshly prepared 1% (w/v) BSA, 36 μL 1% (v/v) Tween-20, and 18 μL DMSO (1% final concentration) in a final volume of 1.8 mL. The final concentration of RNA was 0.5 μM. Separately, serial dilutions of the compound of interest were prepared in the same buffer.
(§3) The resulting curves were analyzed and processed using Octet Data Analysis software version 9.1 by subtracting the response of the sensors recorded upon incubation with solutions containing compound and no RNA (parallel reference). The data were then fitted assuming reversible binding using the entire time interval for association and dissociation using either 1:1 or the 2:1 heterogeneous binding curve fitting model. The reported Kd,n, kon,n and koff,n values represent the average of two independent experiments.
In general terms: Biolayer interferometry detects binding as a change in optical thickness at a sensor tip.

Experiment [6] addresses d(G4C2)8. Briefly: Biolayer interferometry (BLI) binding. The following applies: BLI. The protocol: as §2
as §3, with “Streptavidin sensors (SA, #18-5019, ForteBio) were equilibrated with buffer for 10 min at room temperature using 96-well black microplate (Greiner; Catalog #: 655209). The following time intervals were used during data acquisition (30° C. with shaking at 1000 rpm): baseline step, 180 s; loading of RNA, 900 s; washing, 180 s; association of compound, 1800 s; and dissociation of compound, 1800 s. The resulting” for “The resulting”

Experiment [7] addresses r(G2C2)10. The experiment can be described thus: Biolayer interferometry (BLI) binding. To be noted: BLI; read-out: Kd, 1. The protocol: as §2
as §3, with “Streptavidin sensors (SA, #18-5019, ForteBio) were equilibrated with buffer for 10 min at room temperature using 96-well black microplate (Greiner; Catalog #: 655209). The following time intervals were used during data acquisition (30° C. with shaking at 1000 rpm): baseline step, 180 s; loading of RNA, 900 s; washing, 180 s; association of compound, 1800 s; and dissociation of compound, 1800 s. The resulting” for “The resulting”

The target of experiment [8] is r(G2C4)8. Briefly: Biolayer interferometry (BLI) binding. The following applies: BLI. The protocol:
as §2
as §3, with “Streptavidin sensors (SA, #18-5019, ForteBio) were equilibrated with buffer for 10 min at room temperature using 96-well black microplate (Greiner; Catalog #: 655209). The following time intervals were used during data acquisition (30° C. with shaking at 1000 rpm): baseline step, 180 s; loading of RNA, 900 s; washing, 180 s; association of compound, 1800 s; and dissociation of compound, 1800 s. The resulting” for “The resulting”

Experiment [9] deals with r(G4C2)8 and hnRNP H1 complex. Briefly: TR-FRET hnRNP H binding assay. Type of experiment: biochemical. To be noted: for IC50: inhibiting r(G4C2)8 and hnRNP H1 complex formation, 7 in the absence of Rnase L. The protocol:
TR-FRET hnRNP H Binding Assay. TR-FRET assays were performed as previously described (12). The mixture was incubated for 15 min at room temperature and then hnRNP H1-His6 was added. After an additional 15 min incubation, streptavidin-XL665 (HTRF, Cisbio Bioassays) and anti-His6-Tb (HTRF, Cisbio Bioassays) were added to a final concentration of 40 nM and 0.44 ng/μL, respectively. After incubating for 1 h, TR-FRET was measured as previously described (12).
In general terms: In TR-FRET formats the signal depends on donor and acceptor labels being close together.

The subject of experiment [10] is C9orf72 intron 1 harboring r(G4C2)exp. Briefly: C9orf72 intron 1 RT-qPCR in patient-derived LCLs. Type of experiment: cell-based, human. To be noted: increasing concentrations. The protocol:
Measuring Levels of C9orf72 and C9orf72 Variants by RT-qPCR. LCLs were seeded in 6-well plate (˜10^6 cells in 2 mL of growth medium) and incubated overnight at 37° C. Cells were then treated with various concentrations of compound for 24 h or with G4C2-ASO and Control-ASO (100 nM), delivered by transfection with Lipofectamine RNAiMax. RNA was extracted as described above and the expression of C9orf72 variants was determined by RT-qPCR. […] For compound treatment well, medium change was performed with fresh compound every 3-4 days. RNA was extracted as described above and the expression of C9orf72 variants was determined by RT-qPCR.
(In qPCR the cycle at which signal appears reflects the starting amount.)

Where two headings read alike, the source gives them in different places.

Turning to `C#CCCC1(CCC(=O)N(CCOCCOCCOc2ccc3[nH]c4c(C)c5ccncc5c(C)c4c3c2)CCOCCOCCOc2ccc3[nH]c4c(C)c5ccncc5c(C)c4c3c2)N=N1` [Compound 4], the RNA pulled down in [1] (500 nM compound) is roughly 40%. For the same compound, in experiment [2], the “pull-down of other nucleic acids more than 5” value is given as “did not statistically significantly pull-down”. Moreover, the “enrichment of variants with r(G4C2)exp” value in experiment [3] (500 nM probe) was 1.9±0.4 fold; in [4] (500 nM probe), 2.3±0.2 fold. Also, the “enrichment of variants that do not contain the repeat expansion” value in experiment [3] and in [4] was “no enrichment” in each case.

As a reminder, the Kd is the free concentration of one partner at which half of the binding sites on the other are occupied at equilibrium, for simple one-to-one binding. Broadly, the IC50 is the concentration that gives 50% inhibition. Read a high IC50 as weaker potency in that assay. Turning to `Cc1c2ccncc2c(C)c2c1[nH]c1ccc(OCCOCCOCCOCCOCCOCCOc3ccc4[nH]c5c(C)c6ccncc6c(C)c5c4c3)cc12` [Compound 2], the Kd amounted to 0.05 ± 0.008 µM in experiment [5] (read-out: Kd); 0.12 µM in [5] (read-out: Kd, 2); 1.3 µM in experiment [6] (read-out: Kd, 1); 38 µM in experiment [6] (read-out: Kd, 2); 6 µM in experiment [7]; 32 µM in [8] (read-out: Kd, 1). For the same compound, the Kd in experiment [8] (read-out: Kd, 2) amounted to 120 µM. Also, the “more potent than 1” value in [9] (IC50 relative to 1) is recorded as 10 fold. For the same compound, the IC50 in experiment [9] was roughly 1.8 µM.

On to `CC(=O)N(CCOCCOCCOc1ccc2[nH]c3c(C)c4ccncc4c(C)c3c2c1)CCOCCOCCOc1ccc2[nH]c3c(C)c4ccncc4c(C)c3c2c1` [Compound 6], for which the Kd was 0.2 µM in experiment [5] (exponent printed in row below, read-out: Kd, 1) and 10.6 µM in [5] (read-out: Kd, 2). The same compound displayed a concentration for half-maximal inhibition (IC50) in experiment [9] of 2.3 ± 0.3 µM. Further, the “C9orf72 intron 1 levels on co-treatment with constant concentration of 7” value in experiment [10] is “dose-dependently restored”.

As to `C#CCn1c2ccc(OC)cc2c2c(C)c3cnccc3c(C)c21` [Compound 1b], the Kd in [5] (r(G4C2) repeats, read-out: Kd) came out at 11 ± 0.14 µM. Further, the “avidity weaker than 1” value in experiment [5] (Kd relative to 1) was roughly 37 fold.

As to `C#CCCC1(CCC(=O)NCCC)N=N1` [Compound 5], the RNA pulled down in [1] (all concentrations tested, up to 10 μM) is listed as less than 25%.

(Values after patent publication US20230381170A1, “METHOD FOR TREATING ALS/FTD THROUGH DEGRADATION OF RNA REPEAT EXPANSION” (University of Florida Research Foundation, Incorporated, priority 2020, published 2023).)
